The values below come from ChEMBL document CHEMBL1212731, “Nonclonal emergence of colistin-resistant Klebsiella pneumoniae isolates from blood samples in South Korea” (2010).

Values after ≈ are worked out from the molar mass of the structure shown. A value given as a limit tells only on which side of the number the result lay.

Holding throughout (format): functional
For assay [1], the system named is Klebsiella pneumoniae. The assay is described as follows: Antimicrobial activity against Klebsiella pneumoniae isolated from bacteremia patient assessed as percentage of resistant isolates by broth microdilution method. A general note: Dilution methods test growth across graded concentrations, often in twofold steps.
In assay [2] the test system is Klebsiella pneumoniae. Kind of assay: Antimicrobial activity against colistin-resistant Klebsiella pneumoniae isolated from bacteremia patient assessed as percentage of resistant isolates by broth microdilution method.
The subject of assay [3] is Klebsiella pneumoniae. The assay is described as follows: Antimicrobial activity against colistin-susceptible Klebsiella pneumoniae isolated from bacteremia patient assessed as percentage of resistant isolates by broth microdilution method.
Assay [4] relates to Klebsiella pneumoniae. Kind of assay: Antimicrobial activity against colistin-resistant Klebsiella pneumoniae isolated from bacteremia patient by broth microdilution method.

Turning to `CC1(C)S[C@@H]2[C@H](NC(=O)[C@H](N)c3ccccc3)C(=O)N2[C@H]1C(=O)O` [AMPICILLIN], the Activity in assay [1] is 91.4%; in assay [2] it was 80%; in assay [3], 92.2%. In assay [4], this molecule displayed an MIC50 of 64 µg/mL (≈ 183 µM). The MIC90 in assay [4] is above 64 µg/mL.
For `C[C@H]1[C@H](NC(=O)/C(=N\OC(C)(C)C(=O)O)c2csc(N)n2)C(=O)N1S(=O)(=O)O` [AZTREONAM], the Activity in assay [1] was found to be 16.7%; in assay [2] it was 6.7%; in assay [3], 17.5%. Moreover, the MIC50 in assay [4] was at most 0.06 µg/mL. The molecule further showed an MIC90 in assay [4] above 64 µg/mL.
For `CO/N=C(\C(=O)N[C@@H]1C(=O)N2C(C(=O)O)=C(COC(C)=O)CS[C@H]12)c1csc(N)n1` [CEFOTAXIME], the Activity in assay [1] came out at 14.5%; in assay [2], 6.7%; in assay [3], 15.1%. Also, in assay [4], the MIC50 is at most 0.12 µg/mL. The molecule further gave an MIC90 in assay [4] of 128 µg/mL (≈ 281 µM).
With `CC(C)(O/N=C(\C(=O)N[C@@H]1C(=O)N2C(C(=O)[O-])=C(C[n+]3ccccc3)CS[C@H]12)c1csc(N)n1)C(=O)O` [CEFTAZIDIME], the Activity is recorded as 17.7% in assay [1], 6.7% in assay [2] and 18.5% in assay [3]. In assay [4], this molecule showed an MIC50 of 0.25 µg/mL (≈ 0.457 µM). Besides, the MIC90 in assay [4] was above 64 µg/mL.
On to `O=C(O)c1cn(C2CC2)c2cc(N3CCNCC3)c(F)cc2c1=O` [CIPROFLOXACIN], for which the Activity in assay [1] was 17.7%; in assay [2], 20%; in assay [3], 17.5%. The molecule also gave an MIC50 in assay [4] of at most 0.06 µg/mL. This molecule displayed an MIC90 in assay [4] of 64 µg/mL (≈ 193 µM).
With `C[C@@H](O)[C@H]1C(=O)N2C(C(=O)O)=C(SCCNC=N)C[C@H]12` [IMIPENEM ANHYDROUS], the Activity in assay [1] and in assay [3] was 0.5% each time. The molecule further returned an MIC50 in assay [4] of 0.25 µg/mL (≈ 0.835 µM). In assay [4], this molecule returned an MIC90 of 1 µg/mL (≈ 3.34 µM).
Regarding COLISTIN, the Activity in assay [1] is 6.8%. Moreover, in assay [2], the Activity is 100%. Also, in assay [4], the MIC50 was 1 µg/mL and the MIC90 turned out to be 4 µg/mL.
As for GENTAMICIN, the Activity stood at 16.3% in assay [1], 6.7% in assay [2] and 17% in assay [3]. For the same molecule, the MIC50 in assay [4] was 0.5 µg/mL. Besides, in assay [4], the MIC90 was above 64 µg/mL.

A word on the MIC50: it is an inhibitory concentration at the 50% level, which refers to growth in some studies and to a panel of isolates in others. Low values mean higher susceptibility, high ones lower susceptibility. The MIC90 is an inhibitory concentration at the 90% level, which refers to growth in some studies and to a panel of isolates in others. Lower therefore signals higher susceptibility.
